Patent US20110098177A1, “METHODS AND COMPOSITIONS OF PLANT MICRONUTRIENTS” (NOVUS INTERNATIONAL INC., priority 2006, published 2011)

Tests used:
Assay type in all cases: in vivo
[1] = system: Patriot bell pepper plants; assay: Foliar nutrient concentration at 6 WAT, open-field bell pepper (Examples 7-10)
Method: (§1) The following experiments were performed in open-field plots during the spring of 2008 at GCREC, Balm, University of Florida. Four products delivering Zn (BIOX-Z), Mn (BIOX-M), Cu (BIOX-Cu), and Fe (BIOX-Fe) were compared to other micronutrient supplement formulations in tomato and bell pepper plants.
(§2) The plot sizes for the tomato plants were 30-ft plots (15 plants per plot) and 15-ft plots were used for the bell pepper plants (30 plants per plot). Crop set-up, procedures and variables were as follows.
(§3) Transplants of ‘Tygress’ tomato plants and ‘Patriot’ bell pepper plants in the 4-true leaf stage (about 6 inches tall) were planted in raised beds in open-field plots. The cross-section of each raised bed was 28 inches wide at the top, 32 inches wide at the base, and 8 inches tall. Irrigation and non-micronutrient fertilizer were provided daily through two drip lines per bed (0.45 gal/100 ft bed/min) at recommended rates for tomato and bell pepper production in Florida. […] The height of the plants for each of the treatment groups was measured at 3 weeks after transplantation (WAT), just prior to treatment with the experimental foliar fertilizers.
(§4) All foliar fertilizers except BIOX-CM were applied to the various treatment groups at 3 weeks after transplantation (WAT) and again at 5 WAT. The BIOX-CM treatment was applied at 4 and 5 WAT. The working water volume was 60 gal/acre and a non-ionic surfactant (Ad-Spray 80) was added in the amount of 2 pints/100 gal water. All plots were sprayed with sprayers pressurized at 25 psi and the canopies of both crops were covered with the micronutrient solutions. Treated plots were isolated during foliar fertilizer application to avoid the cross-contamination of other treatments on adjoining plots.
(§5) Leaf samples were collected from the most recent mature leaves from each plant at 6 WAT (2 weeks after initial treatment). Foliar tissue analysis was performed by a commercial laboratory to determine the concentration of N, P, K, Mg, Ca, B, Zn, Mn, Fe, and Cu. Tomato marketable fruit weights were collected at 10 and 12 WAT, and the fruits were graded according to USDA standards. Pepper marketable fruit weights were determined beginning at 5 WAT over 5 weekly harvests. Fruit mineral analysis (N, P, K, Mg, Ca, B, Zn, Mn, Fe, and Cu) was performed on samples from the tomato harvest.
(§6) The experimental design was a randomized complete block design with 5 replications for each treatment. All comparison data were analyzed using a general linear model and the means of each treatment were separated with a Fisher's protected LSD test at the 5% significance level.

[2] = system: Patriot bell pepper plants; assay: Marketable yield, open-field bell pepper (Examples 7-10)
Method: as §1, §2, §3, §4, §5, §6

Tygress tomato plants [3] = assay: Nutrient concentration of tomato fruits at 10 WAT, open field (Examples 7-10)
Method: as §1, §2, §3, §4, §5, §6

Tygress tomato plants [4] = assay: Marketable yield, open-field tomato (Examples 7-10)
Method: as §1, §2, §3, §4, §5, §6

Tygress tomato plants [5] = assay: Foliar nutrient concentration at 6 WAT, open-field tomato (Examples 7-10)
Method: as §1, §2, §3, §4, §5, §6

Aristotle bell pepper = conditions: in vivo
Method: (§7) The following experiments were performed in a green house during the fall of 2007 at GCREC, Balm, University of Florida. Fifteen products, at 3 different application rates were examined. The plot size was 2-gallon pots. Crop set-up, procedures and variables were as follows.
(§8) Transplants of ‘Florida-47’ tomato and ‘Aristotle’ bell pepper plants in the 4-true leaf stage (about 6 inches tall) were planted in 2-gal pots on Aug. 27, 2007. Pots were filled with a commercially available planting medium. This medium was selected based on the mineral composition of the products to be applied without providing significant nutritional inputs to the crops. Irrigation was provided with drip lines delivering between 0.50 and 0.33 gal/day/pot for tomato and bell pepper, respectively, and the crops were irrigated three times per day. No foliar pesticides were necessary.
(§9) There were four control treatments corresponding to each target micronutrient in which non-Fe, non-Mn, non-Zn or non-Cu pots received all other essential nutrients under non-limiting conditions.
(§10) Treatments were applied at three rates (high, medium and low) obtained from the estimated concentration of Zn, Fe, Cu, and Mn foliarly-applied in tomato and bell pepper in field situations (Table 1). Products were weighed and dissolved in 200 ml of deionized water with a non-ionic surfactant and applied to the newly-matured open leaves of each crop at 3 and 7 weeks after transplant (WAT). Treated pots were isolated during application to avoid cross-contamination of other treatments.
(§11) Medium nutrient concentration was determined 1 week before treatment. The mineral composition of the medium was 26.8 ppm NH4—N, 49 ppm NO3—N, 15.8 ppm P, 91.2 ppm K, 82.3 ppm Ca, 58.2 ppm Mg, 23.9 ppm Na, 125.6 ppm S, 1.33 ppm Fe, 0.39 ppm Mn, 0.35 ppm Zn, 0.05 pp, Cu, 0.04 ppm B, 0 ppm Mo, 0.73 ppm Al, and 12.1 ppm Si. The pH of the medium was 5.36 and the electric conductivity was 1.38 mS/cm. The foliar tissue analysis was performed at 6 WAT and the concentration of N, P, K, Mg, Ca, S, B, Zn, Mn, Fe, and Cu was determined by a commercial laboratory. Plant toxicity was determined at 4 WAT by using a 0-10 visual scale, where 0=no visible damage and 10=total plant death. Marketable fruit weight was collected 2 times in bell pepper and 4 times in tomato following USDA standards.
(§12) Data were analyzed using a general linear model, and means were separated using orthogonal contrasts at the 5% significance level.

Florida-47 tomato = conditions: in vivo
Method: as §7, §8, §9, §10, §11, §12

[6] = 6 WAT, open field, product rate as Table 17
[7] = open field, lb/acre/season: BIOX-Z 1.3, Cu 6.7, M 23.0, Fe 3.2, INC 4.0, INZ 0.6, CM 10.0, GZ 1.0, GF 4.0, EDZ 1.4, EDM 23.0
[8] = 10 WAT, open field, product rate as Table 17

manganese citrate [BIOX-CM]
Foliar B concentration of bell pepper plants [1, 6]: 63 ppm
Foliar Ca concentration of bell pepper plants [1, 6]: 4.2%
Foliar Cu concentration of bell pepper plants [1, 6]: 364 ppm
Foliar Fe concentration of bell pepper plants [1, 6]: 121 ppm
Foliar K concentration of bell pepper plants [1, 6]: 3.6%
Foliar Mg concentration of bell pepper plants [1, 6]: 0.47%
Foliar Mn concentration of bell pepper plants [1, 6]: 594 ppm
Foliar N concentration of bell pepper plants [1, 6]: 4.3%
Foliar P concentration of bell pepper plants [1, 6]: 0.23%
Foliar Zn concentration of bell pepper plants [1, 6]: 44 ppm
Marketable yield, Bell Pepper [2, 7]: 8.0 ton/acre
B concentration of tomato fruits (Tygress tomato plants [3]; [8]): 22 ppm
Ca concentration of tomato fruits (Tygress tomato plants [3]; [8]): 0.2%
Cu concentration of tomato fruits (Tygress tomato plants [3]; [8]): 21 b ppm
Fe concentration of tomato fruits (Tygress tomato plants [3]; [8]): 73 b ppm
K concentration of tomato fruits (Tygress tomato plants [3]; [8]): 7.9%
Mg concentration of tomato fruits (Tygress tomato plants [3]; [8]): 0.37%
Mn concentration of tomato fruits (Tygress tomato plants [3]; [8]): 40 b ppm
N concentration of tomato fruits (Tygress tomato plants [3]; [8]): 4.2%
P concentration of tomato fruits (Tygress tomato plants [3]; [8]): 0.57%
Zn concentration of tomato fruits (Tygress tomato plants [3]; [8]): 217 b ppm
Marketable yield, Tomato (Tygress tomato plants [4]; [7]): 13.9 b ton/acre
Foliar concentration of Mn of tomato plants, statement (Tygress tomato plants [5]; 6 WAT, open field): significantly higher foliar concentration of Mn compared to control
Foliar B concentration of tomato plants (Tygress tomato plants [5]; [6]): 43 ppm
Foliar Ca concentration of tomato plants (Tygress tomato plants [5]; [6]): 1.8%
Foliar Cu concentration of tomato plants (Tygress tomato plants [5]; [6]): 326 ppm
Foliar Fe concentration of tomato plants (Tygress tomato plants [5]; [6]): 85 ppm
Foliar K concentration of tomato plants (Tygress tomato plants [5]; [6]): 5.0 b %
Foliar Mg concentration of tomato plants (Tygress tomato plants [5]; [6]): 0.66%
Foliar Mn concentration of tomato plants (Tygress tomato plants [5]; [6]): 272 b ppm
Foliar N concentration of tomato plants (Tygress tomato plants [5]; [6]): 5.1%
Foliar P concentration of tomato plants (Tygress tomato plants [5]; [6]): 0.24 a %
Foliar Zn concentration of tomato plants (Tygress tomato plants [5]; [6]): 242 b ppm

iron glycinate [BIOX-GF]
Pepper toxicity (Aristotle bell pepper): 0
Tomato toxicity (Florida-47 tomato): 0
Foliar nutrient concentration: B ([1]; in vivo): 43 ppm
Foliar nutrient concentration: Ca ([1]; in vivo): 1.8%
Foliar nutrient concentration: Cu ([1]; in vivo): 453 ppm
Foliar nutrient concentration: Fe ([1]; in vivo): 305 ppm
Foliar nutrient concentration: K ([1]; in vivo): 5.7%
Foliar nutrient concentration: Mg ([1]; in vivo): 0.58%
Foliar nutrient concentration: Mn ([1]; in vivo): 266 ppm
Foliar nutrient concentration: N ([1]; in vivo): 5.0%
Foliar nutrient concentration: P ([1]; in vivo): 0.21%
Foliar nutrient concentration: Zn ([1]; in vivo): 322 ppm
Marketable yield, Bell Pepper ([2]; in vivo): 7.0 ton/acre
Nutrient concentration of tomato fruits: B (Tygress tomato plants [3]; in vivo): 21 ppm
Nutrient concentration of tomato fruits: Ca (Tygress tomato plants [3]; in vivo): 0.2%
Nutrient concentration of tomato fruits: Cu (Tygress tomato plants [3]; in vivo): 22 ppm
Nutrient concentration of tomato fruits: Fe (Tygress tomato plants [3]; in vivo): 85 ppm
Nutrient concentration of tomato fruits: K (Tygress tomato plants [3]; in vivo): 8.5%
Nutrient concentration of tomato fruits: Mg (Tygress tomato plants [3]; in vivo): 0.38%
Nutrient concentration of tomato fruits: Mn (Tygress tomato plants [3]; in vivo): 42 ppm
Nutrient concentration of tomato fruits: N (Tygress tomato plants [3]; in vivo): 4.3%
Nutrient concentration of tomato fruits: P (Tygress tomato plants [3]; in vivo): 0.71%
Nutrient concentration of tomato fruits: Zn (Tygress tomato plants [3]; in vivo): 332 ppm
Marketable yield, Tomato (Tygress tomato plants [4]; in vivo): 18.5 a ton/acre
Tomato marketable yield compared to control, statement (Tygress tomato plants [4]; in vivo): significantly higher tomato marketable yield compared to control
Foliar B concentration of tomato plants (Tygress tomato plants [5]; in vivo): 21 ppm
Foliar Ca concentration of tomato plants (Tygress tomato plants [5]; in vivo): 0.2%
Foliar Cu concentration of tomato plants (Tygress tomato plants [5]; in vivo): 22 ppm
Foliar Fe concentration of tomato plants (Tygress tomato plants [5]; in vivo): 85 ppm
Foliar K concentration of tomato plants (Tygress tomato plants [5]; in vivo): 8.5%
Foliar Mg concentration of tomato plants (Tygress tomato plants [5]; in vivo): 0.38%
Foliar Mn concentration of tomato plants (Tygress tomato plants [5]; in vivo): 42 ppm
Foliar N concentration of tomato plants (Tygress tomato plants [5]; in vivo): 4.3%
Foliar P concentration of tomato plants (Tygress tomato plants [5]; in vivo): 0.71%
Foliar Zn concentration of tomato plants (Tygress tomato plants [5]; in vivo): 332 ppm

NCC(=O)[O-].NCC(=O)[O-].[Zn+2] [BIOX-GZ, zinc glycinate]
Pepper toxicity (Aristotle bell pepper): 0
Tomato toxicity (Florida-47 tomato): 0
Foliar B concentration of bell pepper plants ([1]; in vivo): 59 ppm
Foliar Ca concentration of bell pepper plants ([1]; in vivo): 4.2%
Foliar Cu concentration of bell pepper plants ([1]; in vivo): 429 ppm
Foliar Fe concentration of bell pepper plants ([1]; in vivo): 118 ppm
Foliar K concentration of bell pepper plants ([1]; in vivo): 3.4%
Foliar Mg concentration of bell pepper plants ([1]; in vivo): 0.49%
Foliar Mn concentration of bell pepper plants ([1]; in vivo): 282 ppm
Foliar N concentration of bell pepper plants ([1]; in vivo): 4.4%
Foliar P concentration of bell pepper plants ([1]; in vivo): 0.24%
Foliar Zn concentration of bell pepper plants ([1]; in vivo): 145 a ppm
Foliar Zn concentration of bell pepper plants compared to control, statement ([1]; in vivo): significantly higher foliar concentration of Zn
Marketable yield, Bell Pepper ([2]; in vivo): 6.3 ton/acre
B concentration of tomato fruits (Tygress tomato plants [3]; in vivo): 23 ppm
Ca concentration of tomato fruits (Tygress tomato plants [3]; in vivo): 0.2%
Cu concentration of tomato fruits (Tygress tomato plants [3]; in vivo): 23 ppm
Fe concentration of tomato fruits (Tygress tomato plants [3]; in vivo): 87 ppm
K concentration of tomato fruits (Tygress tomato plants [3]; in vivo): 7.8%
Mg concentration of tomato fruits (Tygress tomato plants [3]; in vivo): 0.37%
Mn concentration of tomato fruits (Tygress tomato plants [3]; in vivo): 43 ppm
N concentration of tomato fruits (Tygress tomato plants [3]; in vivo): 4.3%
P concentration of tomato fruits (Tygress tomato plants [3]; in vivo): 0.61%
Zn concentration of tomato fruits (Tygress tomato plants [3]; in vivo): 379 ppm
Marketable yield, Tomato (Tygress tomato plants [4]; in vivo): 16.8 ton/acre
Tomato marketable yield compared to control, statement (Tygress tomato plants [4]; in vivo): significantly higher than the control tomato harvest
Foliar B concentration of tomato plants (Tygress tomato plants [5]; in vivo): 44 ppm
Foliar Ca concentration of tomato plants (Tygress tomato plants [5]; in vivo): 1.8%
Foliar Cu concentration of tomato plants (Tygress tomato plants [5]; in vivo): 482 ppm
Foliar Fe concentration of tomato plants (Tygress tomato plants [5]; in vivo): 94 ppm
Foliar K concentration of tomato plants (Tygress tomato plants [5]; in vivo): 5.0%
Foliar Mg concentration of tomato plants (Tygress tomato plants [5]; in vivo): 0.61%
Foliar Mn concentration of tomato plants (Tygress tomato plants [5]; in vivo): 278 ppm
Foliar N concentration of tomato plants (Tygress tomato plants [5]; in vivo): 4.6%
Foliar P concentration of tomato plants (Tygress tomato plants [5]; in vivo): 0.22%
Foliar Zn concentration of tomato plants (Tygress tomato plants [5]; in vivo): 369 b ppm
